# Results taken from patent US20120220562A1, “Anti-Viral Compounds” (ABBOTT LABAORATORIES, priority 2011, published 2012).
# Tested on: HCV 1b-Con1 replicon
# Assay: HCV 1b-Con1 replicon assay in the presence of 5% FBS
# Format: cell-based
# Details: Hepatitis C virus
row,SMILES,EC50 [pM]
1,"COC(=O)N[C@H](C(=O)N1CCC[C@H]1c1nc2cc(F)c([C@H]3CC[C@H](c4cc5[nH]c([C@@H]6CCCN6C(=O)[C@@H](NC(=O)OC)C(C)C)nc5cc4F)N3c3cc(F)c(N4CCN(c5c(F)cccc5F)CC4)c(F)c3)cc2[nH]1)C(C)C [Example 6.16, methyl {(2S)-1-[(2S)-2-{6-[(2R,5R)-1-{4-[4-(2,6-difluorophenyl)piperazin-1-yl]-3,5-difluorophenyl}-5-{5-fluoro-2-[(2S)-1-{(2S)-2-[(methoxycarbonyl)amino]-3-methylbutanoyl}pyrrolidin-2-yl]-1H-benzimidazol-6-yl}pyrrolidin-2-yl]-5-fluoro-1H-benzimidazol-2-yl}pyrrolidin-1-yl]-3-methyl-1-oxobutan-2-yl}carbamate]",< 100
2,"COC(=O)N[C@H](C(=O)N1CCC[C@H]1c1nc2cc([C@H]3CC[C@H](c4cc5nc([C@@H]6CCCN6C(=O)[C@@H](NC(=O)OC)[C@@H](C)OC)[nH]c5cc4F)N3c3cc(F)c(N4CCC(c5ccc(F)cc5)CC4)c(F)c3)c(F)cc2[nH]1)[C@@H](C)OC [Example 3.52, methyl {(2S,3R)-1-[(2S)-2-{5-[(2R,5R)-1-{3,5-difluoro-4-[4-(4-fluorophenyl)piperidin-1-yl]phenyl}-5-(6-fluoro-2-{(2S)-1-[N-(methoxycarbonyl)-O-methyl-L-threonyl]pyrrolidin-2-yl}-1H-benzimidazol-5-yl)pyrrolidin-2-yl]-6-fluoro-1H-benzimidazol-2-yl}pyrrolidin-1-yl]-3-methoxy-1-oxobutan-2-yl}carbamate]",< 100
3,"COC(=O)N[C@H](C(=O)N1CCC[C@H]1c1nc2cc([C@H]3CC[C@H](c4ccc5[nH]c([C@@H]6CCCN6C(=O)[C@@H](NC(=O)OC)C(C)C)nc5c4)N3c3ccc(Cl)c(F)c3)ccc2[nH]1)C(C)C [Example 2.2, methyl {(2S)-1-[(2S)-2-{5-[(2R,5R)-1-(4-chloro-3-fluorophenyl)-5-{2-[(2S)-1-{(2S)-2-[(methoxycarbonyl)amino]-3-methylbutanoyl}pyrrolidin-2-yl]-1H-benzimidazol-5-yl}pyrrolidin-2-yl]-1H-benzimidazol-2-yl}pyrrolidin-1-yl]-3-methyl-1-oxobutan-2-yl}carbamate]",< 100
4,"COC(=O)N[C@H](C(=O)N1CCC[C@H]1c1nc2cc([C@H]3CC[C@H](c4cc5nc([C@@H]6CCCN6C(=O)[C@@H](NC(=O)OC)C(C)C)[nH]c5cc4F)N3c3cc(F)c(N4CCO[C@@H](c5ccccc5)C4)c(F)c3)c(F)cc2[nH]1)C(C)C [Example 4.55, methyl {(2S)-1-[(2S)-2-{5-[(2R,5R)-1-{3,5-difluoro-4-[(2S)-2-phenylmorpholin-4-yl]phenyl}-5-{6-fluoro-2-[(2S)-1-{(2S)-2-[(methoxycarbonyl)amino]-3-methylbutanoyl}pyrrolidin-2-yl]-1H-benzimidazol-5-yl}pyrrolidin-2-yl]-6-fluoro-1H-benzimidazol-2-yl}pyrrolidin-1-yl]-3-methyl-1-oxobutan-2-yl}carbamate]",< 100
5,"COC(=O)N[C@H](C(=O)N1[C@H](c2nc3cc([C@H]4CC[C@H](c5cc6nc([C@@H]7C[C@@H]8CCC[C@@H]8N7C(=O)[C@@H](NC(=O)OC)[C@@H](C)OC)[nH]c6cc5F)N4c4cc(F)c(N5CCCCC5)c(F)c4)c(F)cc3[nH]2)C[C@@H]2CCC[C@@H]21)[C@@H](C)OC [Example 3.38, methyl {(2S,3R)-1-[(2S,3aS,6aS)-2-{5-[(2R,5R)-1-[3,5-difluoro-4-(piperidin-1-yl)phenyl]-5-(6-fluoro-2-{(2S,3aS,6aS)-1-[N-(methoxycarbonyl)-O-methyl-L-threonyl]octahydrocyclopenta[b]pyrrol-2-yl}-1H-benzimidazol-5-yl)pyrrolidin-2-yl]-6-fluoro-1H-benzimidazol-2-yl}hexahydrocyclopenta[b]pyrrol-1(2H)-yl]-3-methoxy-1-oxobutan-2-yl}carbamate]",< 100
6,"COC(=O)N[C@H](C(=O)N1CCC[C@H]1c1nc2cc([C@H]3CC[C@H](c4ccc5[nH]c([C@@H]6CCCN6C(=O)[C@@H](NC(=O)OC)C6CCOCC6)nc5c4)N3c3cc(F)c(N4CCC(C)(C)CC4)c(F)c3)ccc2[nH]1)C1CCOCC1 [Example 4.23, dimethyl ({(2R,5R)-1-[4-(4,4-dimethylpiperidin-1-yl)-3,5-difluorophenyl]pyrrolidine-2,5-diyl}bis{1H-benzimidazole-5,2-diyl(2S)pyrrolidine-2,1-diyl[(1S)-2-oxo-1-(tetrahydro-2H-pyran-4-yl)ethane-2,1-diyl]})biscarbamate]",< 100
7,"COC(=O)N[C@H](C(=O)N1CCC[C@H]1c1nc2cc([C@H]3CC[C@H](c4ccc5[nH]c([C@@H]6CCCN6C(=O)[C@@H](NC(=O)OC)C(C)C)nc5c4)N3c3cc(F)c(N4[C@H](C)CCC[C@@H]4C)c(F)c3)ccc2[nH]1)C(C)C [Example 4.6, methyl {(2S)-1-[(2S)-2-{5-[(2R,5R)-1-{4-[(2R,6S)-2,6-dimethylpiperidin-1-yl]-3,5-difluorophenyl}-5-{2-[(2S)-1-{(2S)-2-[(methoxycarbonyl)amino]-3-methylbutanoyl}pyrrolidin-2-yl]-1H-benzimidazol-5-yl}pyrrolidin-2-yl]-1H-benzimidazol-2-yl}pyrrolidin-1-yl]-3-methyl-1-oxobutan-2-yl}carbamate]",< 100
8,"COC(=O)N[C@H](C(=O)N1CCC[C@H]1c1nc2ccc([C@H]3CC[C@H](c4ccc5nc([C@@H]6CCCN6C(=O)[C@@H](NC(=O)OC)C(C)C)[nH]c5c4)N3c3ccc(N(C(C)=O)C(C)(C)C)c(F)c3)cc2[nH]1)C(C)C [Example 2.8, methyl {(2S)-1-[(2S)-2-{6-[(2R,5R)-1-{4-[acetyl(tert-butyl)amino]-3-fluorophenyl}-5-{2-[(2S)-1-{(2S)-2-[(methoxycarbonyl)amino]-3-methylbutanoyl}pyrrolidin-2-yl]-1H-benzimidazol-6-yl}pyrrolidin-2-yl]-1H-benzimidazol-2-yl}pyrrolidin-1-yl]-3-methyl-1-oxobutan-2-yl}carbamate]",100 to 1000
9,"COC(=O)N[C@H](C(=O)N1CCC[C@H]1c1nc2cc([C@H]3CC[C@H](c4cc5nc([C@@H]6CCCN6C(=O)[C@@H](NC(=O)OC)[C@@H](C)OC)[nH]c5cc4F)N3c3cc(F)c(N4CCC(c5ccccc5)CC4)c(F)c3)c(F)cc2[nH]1)[C@@H](C)OC [Example 4.38, methyl {(2S,3R)-1-[(2S)-2-{5-[(2R,5R)-1-[3,5-difluoro-4-(4-phenylpiperidin-1-yl)phenyl]-5-(6-fluoro-2-{(2S)-1-[N-(methoxycarbonyl)-O-methyl-L-threonyl]pyrrolidin-2-yl}-1H-benzimidazol-5-yl)pyrrolidin-2-yl]-6-fluoro-1H-benzimidazol-2-yl}pyrrolidin-1-yl]-3-methoxy-1-oxobutan-2-yl}carbamate]",< 100
10,"COC(=O)N[C@H](C(=O)N1CCC[C@H]1c1nc2ccc([C@H]3CC[C@H](c4ccc5nc([C@@H]6CCCN6C(=O)[C@@H](NC(=O)OC)C(C)C)[nH]c5c4)N3c3ccc(S(F)(F)(F)(F)F)cc3)cc2[nH]1)C(C)C [Example 4.13, methyl {(2S)-1-[(2S)-2-(6-{(2R,5R)-5-{2-[(2S)-1-{(2S)-2-[(methoxycarbonyl)amino]-3-methylbutanoyl}pyrrolidin-2-yl]-1H-benzimidazol-6-yl}-1-[4-(pentafluoro-lambda˜6˜-sulfanyl)phenyl]pyrrolidin-2-yl}-1H-benzimidazol-2-yl)pyrrolidin-1-yl]-3-methyl-1-oxobutan-2-yl}carbamate]",< 100
11,"COC(=O)N[C@H](C(=O)N1CCC[C@H]1c1nc2cc([C@H]3CC[C@H](c4ccc5[nH]c([C@@H]6CCCN6C(=O)[C@@H](NC(=O)OC)C(C)C)nc5c4)N3c3cc(F)c(N4CCC(C(C)(C)C)CC4)c(F)c3)ccc2[nH]1)C(C)C [Example 5.9, methyl {(2S)-1-[(2S)-2-{5-[(2R,5R)-1-[4-(4-tert-butylpiperidin-1-yl)-3,5-difluorophenyl]-5-{2-[(2S)-1-{(2S)-2-[(methoxycarbonyl)amino]-3-methylbutanoyl}pyrrolidin-2-yl]-1H-benzimidazol-5-yl}pyrrolidin-2-yl]-1H-benzimidazol-2-yl}pyrrolidin-1-yl]-3-methyl-1-oxobutan-2-yl}carbamate]",< 100
12,"COC(=O)N[C@H](C(=O)N1CCC[C@H]1c1nc2c(F)c([C@H]3CC[C@@H](c4ccc5nc([C@@H]6CCCN6C(=O)[C@@H](NC(=O)OC)C(C)C)[nH]c5c4F)N3c3ccc(C(C)(C)C)cc3)ccc2[nH]1)C(C)C [Example 6.4, methyl {(2S)-1-[(2S)-2-{5-[(2R,5S)-1-(4-tert-butylphenyl)-5-{7-fluoro-2-[(2S)-1-{(2S)-2-[(methoxycarbonyl)amino]-3-methylbutanoyl}pyrrolidin-2-yl]-1H-benzimidazol-6-yl}pyrrolidin-2-yl]-4-fluoro-1H-benzimidazol-2-yl}pyrrolidin-1-yl]-3-methyl-1-oxobutan-2-yl}carbamate]",< 100
13,"COC(=O)N[C@H](C(=O)N1CCC[C@H]1c1nc2cc([C@H]3CC[C@H](c4cc5nc([C@@H]6CCCN6C(=O)[C@@H](NC(=O)OC)C(C)C)[nH]c5cc4F)N3c3cc(F)c(N4CCC(CCCc5ccccc5)CC4)c(F)c3)c(F)cc2[nH]1)C(C)C [Example 4.26, methyl {(2S)-1-[(2S)-2-{5-[(2R,5R)-1-{3,5-difluoro-4-[4-(3-phenylpropyl)piperidin-1-yl]phenyl}-5-{6-fluoro-2-[(2S)-1-{(2S)-2-[(methoxycarbonyl)amino]-3-methylbutanoyl}pyrrolidin-2-yl]-1H-benzimidazol-5-yl}pyrrolidin-2-yl]-6-fluoro-1H-benzimidazol-2-yl}pyrrolidin-1-yl]-3-methyl-1-oxobutan-2-yl}carbamate]",< 100
14,"COC(=O)N[C@H](C(=O)N1CCC[C@H]1c1nc2cc([C@@H]3CC[C@@H](c4cc5nc([C@@H]6CCCN6C(=O)[C@@H](NC(=O)OC)[C@@H](C)OC)[nH]c5cc4F)N3c3cc(F)c(N4CCN(c5c(F)cccc5F)CC4)c(F)c3)c(F)cc2[nH]1)[C@@H](C)OC [Example 3.49, methyl {(2S,3R)-1-[(2S)-2-{5-[(2S,5S)-1-{4-[4-(2,6-difluorophenyl)piperazin-1-yl]-3,5-difluorophenyl}-5-(6-fluoro-2-{(2S)-1-[N-(methoxycarbonyl)-O-methyl-L-threonyl]pyrrolidin-2-yl}-1H-benzimidazol-5-yl)pyrrolidin-2-yl]-6-fluoro-1H-benzimidazol-2-yl}pyrrolidin-1-yl]-3-methoxy-1-oxobutan-2-yl}carbamate]",< 100
